Test results as given in EP0987025A1, “Pharmaceitical composition or composition package containing a pyrimidine nucleoside analogue and a purine nucleoside analogue” (priority 1998, dated 2000).

Key:
[1] = test system: LP-BM5; test: Serum IgG by ELISA (hypergammaglobulinemia) in LP-BM5 infected mice; assay type: in vivo, C57BL/6 mice; conditions: about 4 months from infection
Method: Serum IgG levels were determined using an ELISA technique. Briefly, polyvinylchloride microtiter plates (Immulon I; Dynatech Laboratories, Chantilly, VA) were coated with goat anti mouse IgG (Sigma) diluted in 0.135 M sodium chloride for ≥ 24 hr. After four washes with 0.1% tween PBS (TPBS), the plates were blocked with 5% bovin serum albumin (BSA) in PBS for 1 h at 37°C and washed again with TPBS. Serial dilutions of mouse serum were added and after incubation for 1 h at 37°C, the plates were washed four times with TPBS, and 100 µl of horseradish (HRP)-conjugated goat anti-mouse IgG (Bio-Rad, Richmond, CA) was added. After 1 h incubation at 37°C, serum levels were determined using a color development solution containing 2.2 mM O-Phenylenediamine. Absorbance was measured at 492 nm on Model 2550 EIA READER (BIO-RAD). Absolute serum IgG concentrations were obtained using known concentrations of standard mouse IgG.
First, the efficacy of 2-fluoro-ara-AMP (F-araAMP, Fludara) in inhibiting murine AIDS (MAIDS), a disease characterized by a lymphoproliferative disorder (lymphadenopathy and splenomegaly), associated with severe immunodeficiency and hypergammaglobulinemia, was evaluated. The disease develops in some strains of mice (C57BL/6) that are infected with a murine leukemia virus mixture termed LP-BM5. In the first preliminary experiments (after about 4 months from infection) LP-BMS infected animals were treated with three different concentrations of F-ara-AMP: 0.065 mg/mouse, 0.325 mg/mouse, 0.650 mg/mouse. The animals of each group were treated intraperitoneally for 3 days a week and for 3 weeks. At the end of the treatment animals were killed and splenomegaly, lymphadenopathy and hypergammaglobulinemia were evaluated.

[2] = test system: mitochondrial DNA; test: Determination of mitochondrial DNA content; assay type: in vivo, C57BL/6 mice; conditions: treatment C; vs. untreated mice; 10 weeks after infection; not statistically significant
Description: To detect the mitochondrial DNA a 1544-bp mitochondrial DNA fragment was used as a probe. The mitochondrial DNA probe (kindly provided by Dr. Gadaleta, University of Bari, Italy) spans the region from nucleotide 2578 to 4122 in the complete human mitochondrial DNA. As a result of the high homology between human and mouse mitochondrial DNA this probe recognizes human and mouse sequences equally well (data not shown) (Bibb M.J., Van Etten R.A., Wright C.T., Walberg M.W., Clayton D.A., "Sequence and gene organization of mouse mitochondrial DNA.", Cell 1981; 26:167-80).
Total cellular DNA (4 µg) was digested with the restriction enzyme BamHI (Boehringer, Milan, Italy), analyzed on 0.8% agarose gel, blotted and hybridized with the 1544-bp mitochondrial probe (Brandi G., Casabianca A., Schiavano G.F., et al., "Efficacy and toxicity of long-term administration of 2',3'-dideoxycytidine in the LP-BM5 murine induced immunodeficiency model.", Antiviral Chem. Chemother. 1995; 6:153-61.). […]
Finally, the long term toxicity of Fludara in MAIDS was evaluated. […] Thus, the mitochondrial DNA content in Fludara treated mice was evaluated and only treatment C causes a slight reduction of mitochondrial DNA content (20% vs. untreated mice) although this was not statistically significant. […] The relative amount of mt DNA was determined as described in experimental procedures. […]

Nc1nc(F)nc2c1ncn2[C@@H]1O[C@H](COP(=O)(O)O)[C@@H](O)[C@@H]1O [F-ara-AMP, Fludarabine phosphate]
Hyperg. (% inh.) ([1]; 0.065 mg/mouse i.p. 3 days a week for 3 weeks): 12±10% | Hyperg. (% inh.) ([1]; 0.325 mg/mouse i.p. 3 days a week for 3 weeks): 16±7% | Hyperg. (% inh.) ([1]; 0.650 mg/mouse i.p. 3 days a week for 3 weeks): 19±4% | reduction of mitochondrial DNA content [2]: 20%
